# Measured values: the NIST ThermoML archive (doi:10.1016/j.jct.2015.05.013)
# Experiment: cn = amount concentration of the nth substance listed, in mol/dm3
# Conditions: 298.15 K, 101.3 kPa, Liquid, Taylor dispersion method
compound,measurement,setting,value
COC(=O)[C@@H](N)Cc1cnc[nH]1.Cl.Cl [methyl L-histidinate dihydrochloride] + O,binary diffusion coefficient,c1 = 0.001,1.05e-09 m2/s
same,binary diffusion coefficient,c1 = 0.005,1.01e-09 m2/s
same,binary diffusion coefficient,c1 = 0.01,9.82e-10 m2/s
same,binary diffusion coefficient,c1 = 0.02,9.6e-10 m2/s
same,binary diffusion coefficient,c1 = 0.05,9.21e-10 m2/s
same,binary diffusion coefficient,c1 = 0.1,8.61e-10 m2/s
